Assay results from publication PMC3904085 (Frontiers in Neuroscience, 2014).
“Also recorded” adds a separate entry of the source. Where two headings read alike, the source gives them in different places.

Assays:
[1] = Rat exposure (plasma and brain pharmacokinetics); type: in vivo, Sprague–Dawley rats; settings: for concentration at 2 h / Cmax / Tmax / AUC(0-t): male, Sprague-Dawley; for AUC(0-t): read-out: AUC0–6 h
Experimental: Two cohorts of rats were used in each study, with samples taken from one cohort at 0.5, 1, and 2 h post-dose, and samples taken from the second cohort at 1.5, 4, and 6 h post-dose. The first cohort of animals was sacrificed at 2 h post-dose, and the second at 6 h post-dose to allow for collection of brain samples.

[2] = Plasma and brain binding by equilibrium dialysis (unbound fraction); type: in vitro ADME; settings: rat, equilibrium dialysis at 1 μM
Sprague–Dawley rats = experiment: DRL 72-s schedule of reinforcement in rats; type: in vivo, rat; settings: for Lever Presses Mean / Reinforcers Mean: HSD rats DRL-72-s, raw data
Source text: Each chamber was enclosed in a melamine sound-attenuating cubicle. A white noise generator provided masking noise. The interior of each chamber consisted of three levers mounted on one wall with a house light mounted on the opposite wall. The house light was turned on at initiation of each test session and was turned off at the termination of each session. A water access port was situated next to the lever in the middle of the wall, wherein a reinforced response caused a clicker apparatus to sound paired with a dipper (0.02-ml cup) to be lifted from a water trough to an opening in the floor of the access port for 4 s.
Rats were initially trained under an alternative fixed ratio 1 water reinforcement schedule with a fixed 1-min time schedule for automatic reinforcement. Thus, each response was reinforced, with water also provided every minute in the absence of a response. […] Following acquisition of lever-pressing behavior, rats were trained daily on DRL 18-s sessions for ~2 weeks, following which they were advanced to DRL 72-s sessions. Responding on these sessions became stable after ~8 weeks. Experimental test sessions lasted for 1 h and were conducted 5 days/week during light hours.
(§1) Drugs were administered to the animals once or twice weekly with at least 1 week between subsequent drugs to minimize possible carryover effects. Drug treatments were administered on Tuesdays and Fridays. No treatments were administered on other test days. Wednesdays were control days. “Control” behavior was calculated as the pooled mean lever presses or reinforcers received during Wednesday sessions across all Wednesdays for the duration of each study. Performance was normalized to percent of control by dividing total responses (or reinforcers) for each drug or vehicle treatment by the mean number of responses (reinforcers) in the respective pooled control condition, multiplied by 100.
(§2) The data analyses were conducted on the raw response and reinforcement data. All behavioral data are expressed as the mean ± s.e.m. normalized to the control condition.

C57Bl/6 mice = experiment: DRL 36-s schedule of reinforcement in wild-type mice; type: in vivo, mouse; settings: for Lever Presses Mean / Reinforcers Mean: WT mice DRL-36-s, raw data
Source text: (§3) The levers in these chambers were mounted on one wall with an adjacent food magazine next to the lever in the middle of the wall. A reinforced response caused a clicker apparatus to activate and the pellet feeder to deposit one 45-mg sucrose pellet (BioServ, Frenchtown, NJ) into the food magazine. The house light, which was mounted on the ceiling, was turned on when the session began, remained on throughout the entire session, and was turned off at the end of the session. Each experimental chamber was enclosed in a melamine sound-attenuating cubicle and equipped with a white noise generator to provide masking noise.
(§4) Each mouse was initially trained under a variable time 60-s operant schedule for 5 days, followed by fixed ratio-1 ratio schedule for 5 days. After the mice had acquired lever-pressing behavior, they were trained during daily DRL 6-s sessions for ~1 week, then mice progressed through weekly ascending DRL requirements (12, 18, 24, 30 s) before moving to DRL 36-s sessions. […] Experimental sessions lasted for 45 min and were conducted 5 days/week during light hours.
as §1, §2

[3] = system: mice lacking OX1 receptors; experiment: DRL 36-s schedule of reinforcement in OX1 KO mice; type: in vivo, mouse; settings: for Lever Presses Mean / Reinforcers Mean: OX1 KO mice DRL-36-s, raw data
Source text: (§5) Rats were acclimated to housing conditions for 4 days, followed by sham dosing once daily for 3 days, prior to the experiment. For DRL experiments, male Sprague–Dawley rats weighing between 300 and 350 g at the beginning of the behavioral experiments (Holtzman, Madison, WI) were housed in pairs. For mouse DRL studies, male C57Bl/6 mice (Taconic Farms, Hudson, NY) or mice lacking either OX1 or OX2 receptors, around 8 weeks of age, were obtained from private breeding colonies at Taconic Farms (Hudson, NY). OX1 and OX2 receptor knockout mice were generated using in vitro fertilization of embryos in C57Bl/6 female mice with sperm harvested from male mice obtained from the University of Texas Southwestern Medical Center (Dallas, TX), and backcrossed for at least 10 generations. Mice and rats were housed in separate colony rooms, which were maintained at 22°C and 60% relative humidity. For rat DRL experiments, water was available for a 20-min period following the daily behavioral session. Based on recommendations from the animal care and use committee, the mouse DRL assay was developed using food deprivation rather than water deprivation. […] All experiments were conducted during the light cycle and in compliance with the Guide for the Care and Use of Laboratory Animals under protocols approved by a local animal care and use committee.
as §3, §4, §1, §2

[4] = system: mice lacking OX2 receptors; experiment: DRL 36-s schedule of reinforcement in OX2 KO mice; type: in vivo, mouse; settings: for Lever Presses Mean / Reinforcers Mean: OX2 KO mice DRL-36-s, raw data
Source text: as §5, §3, §4, §1, §2

[5] = set-up: method as in earlier work; settings: ref Fitch et al., unpublished results; Anderson et al., under review; cited from earlier work
[6] = system: c-Fos protein in rat medial prefrontal cortex; experiment: Restraint-stress-induced c-Fos activation (ELISA); settings: 30 mg/kg
Experimental: Thirty min later, rats were restrained in a rigid plastic flat-bottom restraint tube (Braintree Scientific, Inc.; Braintree, MA, USA) for 20 min. After the 20 min stress period, rats were moved to a new cage and housed individually. Rats were sacrificed 2 h after stress onset. […] Immediately after sacrifice, brains were removed, the medial prefrontal cortex (mPFC), a brain area implicated in the pathophysiology of depression, was dissected from both hemispheres and frozen in 1.5 ml centrifuge tubes in dry ice, and stored at −80°C for later analysis.
Frozen mPFC tissues were removed from the −80°C freezer and placed on ice. Tissue was homogenized with a dounce homogenizer. The nuclear extract was prepared from the homogenized samples as per manufacturer's instructions using a CHEMICON ®Nuclear Extraction Kit (Millipore; Billerica, MA, USA). Protein concentrations were determined in the nuclear extracts using the Pierce BCA Protein Assay kit (Pierce Biotechnology, Inc., Rockford, IL, USA). Nuclear fractions were then assayed for Fos protein levels using the Pierce c-Fos Transcription Factor Kit (Pierce Biotechnology, Inc., Rockford, IL, USA), according to the manufacturer's instructions. […] Data were analyzed and plotted using GraphPad Prism (GraphPad Software, Inc.; La Jolla, CA, USA).

[7] = 30 mg/kg PO, two hours post treatment, Ctotal × Fu
[8] = mice lacking OX1 receptors, DRL-36-s, 20 mg/kg

For `Cl.O=S(=O)(c1ccc(F)cc1)N(Cc1ncc[nH]1)c1ccccc1-c1ccccc1` [LSN2424100, N-((1H-imidazol-2-yl)methyl)-N-([1,1′-biphenyl]-2-yl)-4-fluorobenzenesulfonamide hydrochloride], which “Cu (unbound concentration) brain” value [1, 7] is on record?
Its value is 0.67 nM.

What about the “Cu (unbound concentration) plasma” value [1, 7] of the same compound?
The value was 3.52 nM.

And the concentration at 2 h ([1]; brain, 30 mg/kg IP, two hours post treatment, read-out: Brain concentration)?
Its concentration at 2 h is 77.2 ng/g.

And the concentration at 2 h ([1]; brain, 30 mg/kg PO, two hours post treatment, read-out: Brain concentration)?
The concentration at 2 h was 33.5 ng/g.

And the Cmax ([1]; plasma, 30 mg/kg IP)?
The Cmax was 1170 ng/mL.

And the Tmax ([1]; plasma, 30 mg/kg IP)?
Its Tmax is 30 min.

What about the AUC(0-t) ([1]; plasma, 30 mg/kg IP) of the same compound?
The AUC(0-t) was 1300 ng·h/mL.

And the concentration at 2 h ([1]; plasma, 30 mg/kg IP, two hours post treatment, read-out: Plasma concentration)?
The concentration at 2 h was 149 ng/mL.

What about the Cmax ([1]; plasma, 30 mg/kg PO) of the same compound?
Its Cmax is 196 ng/mL.

What about the Tmax ([1]; plasma, 30 mg/kg PO) of the same compound?
The Tmax was 30 min.

What about the AUC(0-t) ([1]; plasma, 30 mg/kg PO) of the same compound?
The AUC(0-t) was 269 ng·h/mL.

And the concentration at 2 h ([1]; plasma, 30 mg/kg PO, two hours post treatment, read-out: Plasma concentration)?
Its concentration at 2 h is 45.8 ng/mL.

What about the fraction unbound at 1 μM ([2]; brain, read-out: Fu (fraction unbound) brain) of the same compound?
Its fraction unbound at 1 μM is 0.0089.

What about the fraction unbound at 1 μM ([2]; plasma, read-out: Fu (fraction unbound) plasma) of the same compound?
The fraction unbound at 1 μM was 0.0341.

What about the “Lever Presses Mean” value (Sprague–Dawley rats; dose 3 mg/kg) of the same compound?
The value was 67.86.

And the “Reinforcers Mean” value (Sprague–Dawley rats; dose 3 mg/kg)?
The value was 10.71.

What about the “Lever Presses Mean” value (Sprague–Dawley rats; dose 10 mg/kg) of the same compound?
Its value is 48.14.

And the “Reinforcers Mean” value (Sprague–Dawley rats; dose 10 mg/kg)?
The value was 12.14.

What about the “Lever Presses Mean” value (Sprague–Dawley rats; dose 30 mg/kg IP) of the same compound?
The value was 56.00.

What about the “Reinforcers Mean” value (Sprague–Dawley rats; dose 30 mg/kg IP) of the same compound?
The value was 15.43.

What about the “Total lever presses emitted” value (Sprague–Dawley rats; rats DRL-72-s, 10 mg/kg, normalized to control days) of the same compound?
Its value is 60 % of control.

And the Lever presses made (Sprague–Dawley rats; rats DRL-72-s, 30 mg/kg IP)?
Its Lever presses made is 70 % of control.

And the Reinforcers received (Sprague–Dawley rats; rats DRL-72-s, 30 mg/kg IP)?
The Reinforcers received was 170 % of control.

What about the Lever presses emitted (C57Bl/6 mice; C57Bl/6 mice DRL-36-s, 10 mg/kg IP) of the same compound?
The Lever presses emitted was 50 % of control.

What about the “Decrease in lever presses emitted, in words” value (C57Bl/6 mice; C57Bl/6 mice DRL-36-s, 20 mg/kg) of the same compound?
The value was “did not reach statistical significance”.

What about the “Reinforcers received (maximum increase)” value (C57Bl/6 mice; C57Bl/6 mice DRL-36-s, doses 3–20 mg/kg IP, did not reach statistical significance) of the same compound?
The value was “up to 225 % of control”.

What about the “Lever Presses Mean” value (C57Bl/6 mice; dose 3 mg/kg) of the same compound?
Its value is 153.38.

And the “Reinforcers Mean” value (C57Bl/6 mice; dose 3 mg/kg)?
The value was 15.00.

And the “Lever Presses Mean” value (C57Bl/6 mice; dose 10 mg/kg)?
Its value is 83.88.

What about the “Reinforcers Mean” value (C57Bl/6 mice; dose 10 mg/kg) of the same compound?
Its value is 18.75.

What about the “Lever Presses Mean” value (C57Bl/6 mice; dose 20 mg/kg) of the same compound?
Its value is 105.43.

And the “Reinforcers Mean” value (C57Bl/6 mice; dose 20 mg/kg)?
Its value is 28.00.

What about the “Lever Presses Mean” value ([3]; dose 3 mg/kg) of the same compound?
The value was 164.38.

And the “Reinforcers Mean” value ([3]; dose 3 mg/kg)?
Its value is 23.13.

And the “Lever Presses Mean” value ([3]; dose 10 mg/kg)?
Its value is 174.75.

What about the “Reinforcers Mean” value ([3]; dose 10 mg/kg) of the same compound?
The value was 20.00.

And the “Lever Presses Mean” value ([3]; dose 20 mg/kg)?
Its value is 105.25.

What about the “Reinforcers Mean” value ([3]; dose 20 mg/kg) of the same compound?
Its value is 31.75.

And the Lever presses emitted [3, 8]?
The Lever presses emitted was 50 % of control.

And the Reinforcers received [3, 8]?
Its Reinforcers received is 200 % of control.

What about the “Lever Presses Mean” value ([4]; dose 10 mg/kg) of the same compound?
The value was 171.75.

And the “Reinforcers Mean” value ([4]; dose 10 mg/kg)?
Its value is 18.88.

And the “Lever Presses Mean” value ([4]; dose 20 mg/kg)?
Its value is 160.00.

What about the “Reinforcers Mean” value ([4]; dose 20 mg/kg) of the same compound?
Its value is 23.38.

And the “Lever Presses Mean” value ([4]; dose 40 mg/kg)?
The value was 158.25.

And the “Reinforcers Mean” value ([4]; dose 40 mg/kg)?
Its value is 26.25.

What about the “Change in reinforcers received or lever presses emitted, in words” value ([4]; mice lacking OX2 receptors, doses up to 40 mg/kg) of the same compound?
The value was “no significant change”.

What about the “Direct effects on food or water intake” value [5] of the same compound?
The value was “no direct effects”.

What about the “Effect on restraint stress-induced increase in c-fos expression in prefrontal cortex” value ([6]; 30 mg/kg IP 30 min before 20 min restraint) of the same compound?
The value was “attenuated; also recorded: blocked”.

And the “c-fos protein levels in prefrontal cortex without stress (home cage) vs vehicle” value ([6]; 30 mg/kg IP, no restraint stress)?
The value was “no effect”.
